Values after ≈ are worked out from the molar mass of the structure shown.
Tests used:
[1] = Lipophilicity determination by RP-HPLC; format: physicochemical; settings: for log k: RP-HPLC, logarithm of capacity factor k
Procedure: It is evident from the graphs in Figure 1 that the correlation coefficients of the dependences of log k/log D6.5/log D7.4 have a value of r = 0.999 (n = 32), which means that the investigated compounds behave insignificantly differently in aqueous media with different pH. Moreover, lipophilicity was calculated as log P and Clog P using two prediction programs. […] Therefore, only log P values predicted by ACD/Percepta can be used for correlations with experimental values. These matches are shown in the graphs in Figure 2, and according to the correlation coefficient r~0.940 (n = 32), it can be argued that even the predicted lipophilicity values correlate with the experimentally measured ones. However, the largest variations were observed (no difference for series 1, 2) for compounds substituted with 2-Cl, 2-CF3, 2,5-Cl, 4-F, 4-CF3, and 3,5-F, 3,5-Cl. These are mainly substituents capable of forming hydrogen and other types of non-bonding interactions both with the surrounding environment and within the molecule. Overall, series 1 (3-CF3) is less lipophilic than series 2 (4-CF3), but the differences in the experimental data are insignificant. Unsubstituted derivatives 1a/2a are the least lipophilic compounds, while derivatives 1o/2o (3,5-Cl) and 1p/2p (3,5-CF3) are the most lipophilic compounds.
Experimental determination of lipophilicity values (log k, log D6.5, and log D7.4) was performed under the same conditions and on the same device as described by Strharsky et al..

[2] = tested on: methicillin-resistant S. aureus 63718 (MRSA3); assay: MBC, agar aliquot subculture method; format: cell-based; settings: Staphylococcus aureus; MRSA 63718
[3] = tested on: Staphylococcus aureus ATCC 29213; assay: MBC, agar aliquot subculture method; format: cell-based; settings: ATCC29213, S. aureus ATCC 29213
S. aureus ATCC 29213 = assay: MTT assay, inhibition of bacterial respiration; format: cell-based, Staphylococcus aureus
Description: The MTT assay can be used to assess cell growth by measuring respiration. Respiratory activity of bacterial cells (which is finally reflected in their viability) less than 70% after exposure to the MIC values for each tested compound is considered as a positive result of this assay. This low level of cell oxidative metabolism indicates inhibition of cell growth by inhibition of respiration. The lowest multiples of MIC values that achieved more than 70% inhibition of S. aureus ATCC 29213 viability (%) are shown in Table 3.
The percent inhibition of respiration of S. aureus ATCC 29213 was determined through the MTT assay. The assay was performed as described recently. The percent viability is calculated through the comparison of a measured value and that of the uninhibited control: % viability = OD570E/OD570P × 100, where OD570E is the reading from the compound-exposed cells, while OD570P is the reading from the uninhibited cells (positive control). Cytotoxic potential is determined by a percent viability of <70% [46, 47].

[4] = tested on: methicillin-resistant S. aureus SA 630 (MRSA2); assay: MIC, microtitration broth method; format: cell-based; settings: Staphylococcus aureus; MRSA SA 630
[5] = tested on: Staphylococcus aureus ATCC 29213; assay: MIC, microtitration broth method; format: cell-based; settings: ATCC29213, S. aureus ATCC 29213
[6] = tested on: human monocytic leukemia cell line THP-1; assay: In vitro cell viability (cytotoxicity screening); format: cell-based; settings: 24 h, medium with 10% FBS, ± SD, n = 6
Procedure: The investigated anilides can be divided into three groups. […] Higher concentrations (than 10 or 30 µM) were not possible to evaluate due to precipitation of the tested compounds in water medium. Based on all these observations, it can be concluded that the high antimicrobial activity of 3,5-CF3-substituted compounds is associated with significant cytotoxic effect against eukaryotic cells. On the other hand, the other still effective compounds, especially agents 1j and 1o, have an insignificant toxic effect, which makes them interesting for further study.
Human monocytic leukemia THP-1 cells obtained from the European Collection of Cell Cultures (ECACC, Salisbury, UK) were used for in vitro antiproliferative assays. A recently described procedure was used.

[7] = tested on: methicillin-resistant S. aureus 63718 (MRSA3); assay: MIC, microtitration broth method; format: cell-based; settings: Staphylococcus aureus; MRSA 63718
M. smegmatis ATCC 700084 = assay: In vitro antimycobacterial evaluation (MIC); format: cell-based, Mycobacterium smegmatis; settings: Mycolicibacterium smegmatis, ATCC700084
[8] = tested on: methicillin-resistant S. aureus SA 630 (MRSA2); assay: MBC, agar aliquot subculture method; format: cell-based; settings: Staphylococcus aureus; MRSA SA 630
[9] = tested on: methicillin-resistant S. aureus SA 3202 (MRSA1); assay: MIC, microtitration broth method; format: cell-based; settings: Staphylococcus aureus; MRSA SA 3202
[10] = tested on: methicillin-resistant S. aureus SA 3202 (MRSA1); assay: MBC, agar aliquot subculture method; format: cell-based; settings: Staphylococcus aureus; MRSA SA 3202

Compound	log k [1]	melting point [°C]	also measured
O=C(/C=C/c1cccc(C(F)(F)F)c1)Nc1ccccc1 [1a, (2E)-N-Phenyl-3-[3-(trifluoromethyl)phenyl]prop-2-enamide]	0.5234	–	–
O=C(/C=C/c1cccc(C(F)(F)F)c1)Nc1ccccc1F [1b, (2E)-N-(2-Fluorophenyl)-3-[3-(trifluoromethyl)phenyl]prop-2-enamide]	0.5375	115 to 117	–
O=C(/C=C/c1cccc(C(F)(F)F)c1)Nc1cccc(F)c1 [1c, (2E)-N-(3-Fluorophenyl)-3-[3-(trifluoromethyl)phenyl]prop-2-enamide]	0.6333	113 to 115	MBC [2]: 12.9 µM (≈ 3.99 µg/mL); MBC [3]: 25.9 µM (≈ 8.01 µg/mL); Conc.: lowest multiple of MIC with at least 70% inhibition of respiratory activity (S. aureus ATCC 29213): 2 × MIC; Conc.: the same concentration as multiple of MBC (S. aureus ATCC 29213): 1 × MBC; MIC [4]: 12.9 µM (≈ 3.99 µg/mL); MIC [5]: 12.9 µM (≈ 3.99 µg/mL); IC50 [6]: > 30 µM; MIC [7]: 12.9 µM (≈ 3.99 µg/mL); MIC (M. smegmatis ATCC 700084): 51.7 µM (≈ 16 µg/mL); MBC [8]: 12.9 µM (≈ 3.99 µg/mL); MIC [9]: 25.9 µM (≈ 8.01 µg/mL); MBC [10]: 25.9 µM (≈ 8.01 µg/mL)
O=C(/C=C/c1cccc(C(F)(F)F)c1)Nc1ccc(F)cc1 [1d, (2E)-N-(4-Fluorophenyl)-3-[3-(trifluoromethyl)phenyl]prop-2-enamide]	0.5760	–	–
O=C(/C=C/c1cccc(C(F)(F)F)c1)Nc1ccccc1Cl [1e, (2E)-N-(2-Chlorophenyl)-3-[3-(trifluoromethyl)phenyl]prop-2-enamide]	0.6568	118 to 120	–
O=C(/C=C/c1cccc(C(F)(F)F)c1)Nc1ccccc1C(F)(F)F [1h, (2E)-N-[2-(Trifluoromethyl)phenyl]-3-[3-(trifluoromethyl)phenyl]prop-2-enamide]	0.5710	111 to 113	–
O=C(/C=C/c1cccc(C(F)(F)F)c1)Nc1cccc(C(F)(F)F)c1 [1i, (2E)-N,3-bis[3-(Trifluoromethyl)phenyl]prop-2-enamide]	0.8807	–	MBC [2]: 22.3 µM (≈ 8.01 µg/mL); MBC [3]: 22.3 µM (≈ 8.01 µg/mL); Conc.: lowest multiple of MIC with at least 70% inhibition of respiratory activity (S. aureus ATCC 29213): 1 × MIC; Conc.: the same concentration as multiple of MBC (S. aureus ATCC 29213): 0.5 × MBC; MIC [4]: 2.78 µM (≈ 0.999 µg/mL); MIC [5]: 11.1 µM (≈ 3.99 µg/mL); IC50 [6]: > 10 µM; MIC [7]: 2.78 µM (≈ 0.999 µg/mL); MIC (M. smegmatis ATCC 700084): 11.1 µM (≈ 3.99 µg/mL); MBC [8]: 2.78 µM (≈ 0.999 µg/mL); MIC [9]: 11.1 µM (≈ 3.99 µg/mL); MBC [10]: 11.1 µM (≈ 3.99 µg/mL)
O=C(/C=C/c1cccc(C(F)(F)F)c1)Nc1ccc(F)cc1F [1k, (2E)-N-(2,4-Difluorophenyl)-3-[3-(trifluoromethyl)phenyl]prop-2-enamide]	0.5906	143 to 145	–
O=C(/C=C/c1cccc(C(F)(F)F)c1)Nc1cc(F)cc(F)c1 [1l, (2E)-N-(3,5-Difluorophenyl)-3-[3-(trifluoromethyl)phenyl]prop-2-enamide]	0.8186	131 to 133	–
O=C(/C=C/c1cccc(C(F)(F)F)c1)Nc1ccc(Cl)cc1Cl [1m, (2E)-N-(2,4-Dichlorophenyl)-3-[3-(trifluoromethyl)phenyl]prop-2-enamide]	0.9782	134 to 136	–
O=C(/C=C/c1cccc(C(F)(F)F)c1)Nc1cc(Cl)ccc1Cl [1n, (2E)-N-(2,5-Dichlorophenyl)-3-[3-(trifluoromethyl)phenyl]prop-2-enamide]	0.9612	145 to 147	–
O=C(/C=C/c1ccc(C(F)(F)F)cc1)Nc1ccccc1F [2b, (2E)-N-(2-Fluorophenyl)-3-[4-(trifluoromethyl)phenyl]prop-2-enamide]	0.5515	164 to 166	–
O=C(/C=C/c1ccc(C(F)(F)F)cc1)Nc1cccc(F)c1 [2c, (2E)-N-(3-Fluorophenyl)-3-[4-(trifluoromethyl)phenyl]prop-2-enamide]	0.6462	146 to 148	–
O=C(/C=C/c1ccc(C(F)(F)F)cc1)Nc1ccc(F)cc1 [2d, (2E)-N-(4-Fluorophenyl)-3-[4-(trifluoromethyl)phenyl]prop-2-enamide]	0.5887	149 to 151	–
O=C(/C=C/c1ccc(C(F)(F)F)cc1)Nc1ccccc1Cl [2e, (2E)-N-(2-Chlorophenyl)-3-[4-(trifluoromethyl)phenyl]prop-2-enamide]	0.6614	171 to 173	–
O=C(/C=C/c1ccc(C(F)(F)F)cc1)Nc1cccc(Cl)c1 [2f, (2E)-N-(3-Chlorophenyl)-3-[4-(trifluoromethyl)phenyl]prop-2-enamide]	0.8095	150 to 152	–
O=C(/C=C/c1ccc(C(F)(F)F)cc1)Nc1ccc(Cl)cc1 [2g, (2E)-N-(4-Chlorophenyl)-3-[4-(trifluoromethyl)phenyl]prop-2-enamide]	0.8054	185 to 187	–
O=C(/C=C/c1ccc(C(F)(F)F)cc1)Nc1ccccc1C(F)(F)F [2h, (2E)-N-[2-(Trifluoromethyl)phenyl]-3-[4-(trifluoromethyl)phenyl]prop-2-enamide]	0.5798	189 to 191	–
O=C(/C=C/c1ccc(C(F)(F)F)cc1)Nc1ccc(C(F)(F)F)cc1 [2j, (2E)-N,3-bis[4-(Trifluoromethyl)phenyl]prop-2-enamide]	0.9319	192 to 194	–
O=C(/C=C/c1ccc(C(F)(F)F)cc1)Nc1ccc(F)cc1F [2k, (2E)-N-(2,4-Difluorophenyl)-3-[4-(trifluoromethyl)phenyl]prop-2-enamide]	0.6011	141 to 143	–
O=C(/C=C/c1ccc(C(F)(F)F)cc1)Nc1cc(F)cc(F)c1 [2l, (2E)-N-(3,5-Difluorophenyl)-3-[4-(trifluoromethyl)phenyl]prop-2-enamide]	0.8253	188 to 190	–
O=C(/C=C/c1ccc(C(F)(F)F)cc1)Nc1ccc(Cl)cc1Cl [2m, (2E)-N-(2,4-Dichlorophenyl)-3-[4-(trifluoromethyl)phenyl]prop-2-enamide]	0.9735	188 to 190	–
O=C(/C=C/c1ccc(C(F)(F)F)cc1)Nc1cc(Cl)ccc1Cl [2n, (2E)-N-(2,5-Dichlorophenyl)-3-[4-(trifluoromethyl)phenyl]prop-2-enamide]	0.9583	180 to 182	–
O=C(/C=C/c1ccc(C(F)(F)F)cc1)Nc1cc(Cl)cc(Cl)c1 [2o, (2E)-N-(3,5-Dichlorophenyl)-3-[4-(trifluoromethyl)phenyl]prop-2-enamide]	1.2024	177 to 179	–
(2E)-N-Phenyl-3-[3-(trifluoromethyl)phenyl]prop-2-enamide [2a]	0.5351	–	log D6.5 ([1]; pH 6.5): 0.4751; log D7.4 ([1]; pH 7.4): 0.4684

From article PMC9737391, “Trifluoromethylcinnamanilide Michael Acceptors for Treatment of Resistant Bacterial Infections” (International Journal of Molecular Sciences, 2022)
